Entries after “also recorded” stand apart in the source; their conditions may differ. Structures can show the parent of a compound that is named as a salt.
Tests used:
[1] = test system: scopolamine-induced cognitive impairment (rat Morris water maze); experiment: rat Morris water maze model, scopolamine-induced cognitive impairment; format: in vivo; settings: for effect on scopolamine-induced memory impairment: 0.03 mg/kg plus scopolamine 0.5 mg/kg; for effect on ability of rats to learn platform location when administered alone: no scopolamine; for reversal of scopolamine-induced cognitive impairment with coadministered 5-HT4 antagonist: compound 0.1 mg/kg i.p. plus GR125487 1 mg/kg i.p. and scopolamine 0.5 mg/kg
Protocol: Adult, male Sprague-Dawley rats (body weight range 275-400 g) were handled by the investigator for approximately 5 minutes one day prior to each study. […] A clear Perspex® platform was located in a fixed position 1 cm below the surface of the water, and 34 cm from the wall of the tank. Four visual cues (A4-sized pictures of different black and white symbols) were equally spaced on the wall of the tank, just above the water surface. Black curtains were placed around the tank and white noise was generated throughout the test. Each rat was released into the water, facing the tank wall, at a designated starting point (i.e., at the north side of the tank), and allowed 60 seconds to locate the submerged platform after each placement. The escape latency (in seconds) between release of the rat into the water and its locating the platform was recorded automatically by means of a video camera (San Diego Instrument, CA) and tracking software (SMART software, San Diego Instrument, CA). […] The rats were allowed to remain on the platform for 30 seconds to observe the external visual cues and pair them with the relative position of the platform. The rats were then taken off the platform and dried gently with a paper towel before repeating the test three more times (from south, then east and finally west starting positions). After the fourth test, each rat was placed under a heating lamp for 5 minutes before being returned to its home cage. The entire procedure was repeated on days 2 and 3. Over the three days of testing, rats learned to associate the location of the submerged platform (and their only means to escape the water) with the visual cues. […] The number of crossings of the previous platform location and the time spent by the rat in each quadrant were recorded. Animals that had learned the location of the platform spent more time in the appropriate quadrant and repeatedly crossed that quadrant. By performing the probe test, false positives could be excluded from the analysis (i.e., rats that had previously located the platform via a strategy independent of the visual cues, such as swimming randomly until a leg hit the platform). No animals were excluded based on conflicting data between the three days of testing and the probe test. […] The following statistical tests were performed on the data: […] A two-way repeated-measures ANOVA, followed by a Bonferroni post-hoc test, was used to compare the mean escape latency for each of the three successive test days, with p<0.05 indicating a statistically significant difference. […] Pat. […] Pat. […] Donepezil hydrochloride was purchased from Changzhou Dahua Imp. and Exp. Corp. Ltd. […] Louis, Mo.) or Spectrum Chemical Mfg. Corp. (Gardena, Calif.). GR125487 sulfamate was purchased from Tocris (Ellisville, Mo.). […] Doses were expressed with respect to the free base weights of each compound.

human 5-HT4(d) receptor = human 5-HT4(d) receptor (Homo sapiens, UniProt Q13639); experiment: cell-based
human 5-HT4(d) receptor, sequence (Q13639 1-360 isoform Q13639-3): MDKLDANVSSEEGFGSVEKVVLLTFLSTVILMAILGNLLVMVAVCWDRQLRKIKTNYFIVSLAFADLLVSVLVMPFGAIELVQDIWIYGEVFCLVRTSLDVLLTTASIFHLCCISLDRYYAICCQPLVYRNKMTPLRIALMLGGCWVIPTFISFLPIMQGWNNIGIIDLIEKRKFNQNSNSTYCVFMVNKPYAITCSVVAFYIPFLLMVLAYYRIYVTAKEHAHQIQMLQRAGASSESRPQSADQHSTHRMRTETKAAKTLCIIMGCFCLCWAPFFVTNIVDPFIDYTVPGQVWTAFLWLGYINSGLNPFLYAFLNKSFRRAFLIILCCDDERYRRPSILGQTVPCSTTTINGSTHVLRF
Protocol: HEK-293 (human embryonic kidney) cells stably-transfected with human 5-HT4(d) receptor cDNA and human APP695 cDNA (HEK293-5-HT4(d)-APP695) were grown in Dulbecco's Modified Eagles Medium (DMEM) containing D-glucose supplemented with 10% fetal bovine serum, 2 mM GlutaMax-1, and 100 units penicillin (100 μg), and 100 μg/mL streptomycin in a 5% CO2, humidified incubator at 37° C. Cells were grown under continuous selection pressure by the addition of G418 (500 ug/mL) antibiotic.
HEK293-5-HT4(d)-APP695 cells (3×10^5 cells/well) were serum-starved for 4 hr prior to incubation with agonists for 30 min (unless otherwise stated) at 37° C. The culture medium was aspirated, centrifuged to remove cellular debris and the level of sAPPα determined by Western blot. sAPPα was detected using antibody 6E10 (Signet/Covance) and a goat anti-mouse HRP-conjugated 2° antibody. Immunoreactive bands corresponding to sAPPα were visualized and quantified with ECL substrate (Pierce) and a Fluor Chem HD2 image system (Alpha Innotech). Western blot analysis of samples was conducted in duplicate.
Potency data are reported as pEC50 values, the negative decadic logarithm of the EC50 value, where EC50 is the effective concentration for a 50% maximal response. […] To determine EC50 values, data from independent experiments were fit simultaneously to a sigmoidal concentration response curve using Graph Pad Prism software (slope constrained to unity).

[2] = 0.01 mg/kg plus scopolamine 0.5 mg/kg
[3] = 0.1 mg/kg plus scopolamine 0.5 mg/kg
[4] = 1 mg/kg plus scopolamine 0.5 mg/kg

Row | Structure (SMILES) | effect on scopolamine-induced cognitive decline when administered alone [1, 2] | effect on scopolamine-induced memory impairment [1] | effect on scopolamine-induced memory impairment, mean escape latency day 3 [1, 3] | effect on ability of rats to learn platform location when administered alone ([1]; 1 mg/kg i.p.) | effect on scopolamine-induced memory impairment, mean escape latency day 3 [1, 4] | reversal of scopolamine-induced cognitive impairment with coadministered 5-HT4 antagonist [1] | also measured
1 | CC(C)n1c(=O)c(C(=O)N[C@H]2C[C@H]3CC[C@@H](C2)N3C[C@@H](O)CN(C)S(C)(=O)=O)cc2ccccc21 [Compound 1, 1-isopropyl-2-oxo-1,2-dihydroquinoline-3-carboxylic acid {(1S,3R,5R)-8-[(R)-2-hydroxy-3-(methanesulfonyl-methyl-amino)propyl]-8-azabicyclo[3.2.1]oct-3-yl}amide] | Neither compound 1 at a dose of 0.01 mg/kg nor donepezil at a dose of 0.1 mg/kg were found to have a significant effect | attenuated the memory impairment | achieved statistical significance | had no effect | attenuated the memory impairment | abolished | effect on scopolamine-induced memory impairment, mean escape latency day 3 ([1]; 1 mg/kg plus scopolamine 0.5 mg/kg, listed as compound 1): had no effect
2 | COC(=O)N1CCC(CN2CCC(CNC(=O)c3cccc4[nH]c(C(C)C)nc34)CC2)CC1 [Compound 2, 4-(4-{[(2-isopropyl-1H-benzoimidazole-4-carbonyl)amino]methyl}-piperidin-1-ylmethyl)piperidine-1-carboxylic acid methyl ester] | Neither compound 2 at a dose of 0.01 mg/kg nor donepezil at a dose of 0.1 mg/kg were found to have a significant effect | attenuated the memory impairment | achieved statistical significance | had no effect | had no effect | abolished | effect of antagonist GR113808 on compound-evoked sAPPα release (human 5-HT4(d) receptor; 10 min 1 μM GR113808 before compound at 100 nM): completely blocked; sAPPα release, concentration dependence (human 5-HT4(d) receptor; HEK293 cells with human 5-HT4(d) receptors and human APP695): concentration-dependent increase; Emax (human 5-HT4(d) receptor; read-out: Emax (% response relative to 1 μM 5-HT)): 103%
3 | COc1[nH]c2ccc(F)cc2c1C(=O)OCC1CCN(CCNS(C)(=O)=O)CC1 [GR125487, reference compound] |  |  |  |  |  |  | effect in Morris water maze when administered alone ([1]; GR125487 1 mg/kg i.p. alone): had no effect
4 | CN1[C@@H]2C[C@@H](OC(=O)[C@H](CO)c3ccccc3)C[C@H]1[C@@H]1O[C@@H]12 [Scopolamine, scopolamine hydrochloride, reference compound] |  |  |  |  |  |  | attenuation of learning versus vehicle ([1]; 0.5 mg/kg i.p., p<0.025): statistically significant attenuation of learning
5 | COc1cc2c(cc1OC)C(=O)C(CC1CCN(Cc3ccccc3)CC1)C2 (stereo not shown) [donepezil, donepezil hydrochloride, reference compound] |  |  |  |  |  |  | effect on scopolamine-induced cognitive decline when administered alone ([1]; 0.1 mg/kg plus scopolamine 0.5 mg/kg, hydrochloride): Neither compound 1 at a dose of 0.01 mg/kg nor donepezil at a dose of 0.1 mg/kg were found to have a significant effect; also recorded: Neither compound 2 at a dose of 0.01 mg/kg nor donepezil at a dose of 0.1 mg/kg were found to have a significant effect; reversal of scopolamine-induced cognitive deficit, mean escape latency day 3 ([1]; 3 mg/kg i.p. plus scopolamine 0.5 mg/kg): statistically significant reversal; effect on ability of rats to learn platform location when administered alone ([1]; 3 mg/kg i.p.): had no effect; reversal of scopolamine-induced cognitive deficit, mean escape latency day 3 ([1]; 0.3-3 mg/kg i.p. plus scopolamine 0.5 mg/kg i.p.): dose-dependent manner

— patent US8404711B2, “5-HT4 receptor agonist compounds for treatment of cognitive disorders” (priority 2009, dated 2013)
